The values below come from patent publication US11969436B2, “Method for treating skin irritation caused by parabens” (Kao Corporation, priority 2017, dated 2024).

Series [1] concerns skin of subjects with sensitive skin. In words: Stinging test A, sensory irritation on the cheek of subjects with sensitive skin. Format: in vivo, human. The settings on record: nonwoven fabric with 600 μL of 16.4 mM aqueous solution on the cheek, 30 seconds to 5 minutes; FIG. 2. As to the method:
Those who met all of the following criteria were selected as subjects with sensitive skin.
The subjects selected were tested for Stinging test A according to the following method.
After washing face with a make-up remover and a face wash, conditioning was performed in an environment of a temperature of 23° C. and a humidity of 50% for 5 minutes or more. A 2 cm×5 cm piece of nonwoven fabric which was impregnated with 600 μL of a 16.4 mM aqueous solution of methyl p-hydroxybenzoate or p-hydroxybenzoic acid was contacted to the cheek. For sensory irritation that the subjects felt (sore, stinging, pricking, smart, hot, flushed) 30 seconds, 1 minute, 2 minutes, 3 minutes, and 5 minutes after the start of the contact, the subjects submitted scores (0: nothing felt, 0.5: slightly felt or slight discomfort, 1.0: a little discomfort, 1.5: a little to moderate discomfort, 2.0: moderate discomfort, 2.5: moderate to much discomfort, 3.0: much or unbearable discomfort). A value obtained by subtracting, from the highest score of all the scores after 30 seconds to 5 minutes, the highest score in a test performed in the same manner as above except for using distilled water was determined as the sensory irritation score, and the sensory irritation score was statistically analyzed by the Nilcoxon signed-rank test.

For series [2], the system named is three-dimensional cultured human epidermis model. The series is described as follows: IL-1α production in three-dimensional cultured human epidermis model (LabCyte EPI-MODEL 24). The settings on record: 50 μL of 16.4 mM aqueous solution, cultured 6 hours, post-cultured 18 hours; FIG. 1. Format: cell-based. As to the method:
LabCyte EPI-MODEL 24 (made by Japan Tissue Engineering Co., Ltd.) was used as a three-dimensional cultured human epidermis model. The culture insert was pre-cultured (5% CO2, 37° C.) in a 500 μL exclusive assay medium overnight, and the culture insert was transferred to a 24-well plate containing a fresh assay medium. 50 μL of a 16.4 mM aqueous solution of methyl p-hydroxybenzoate (MP) or p-hydroxybenzoic acid (PHBA) was added to the epidermal tissue in the culture insert, and the tissue was cultured for 6 hours. Then the culture insert was washed with phosphate buffer 10 times, and transferred to a 24-well plate containing a fresh assay medium, and post-cultured for 18 hours. After the post-culture, the amount of IL-1α in the medium was determined using Human IL-1 alpha/IL-1F1 Quantikine ELISA Kit (R&D Systems) according to the protocol attached.

For series [3], the system named is CES1. In words: CES1 mRNA expression in normal human epidermal keratinocytes (real-time PCR, ΔΔ CT method). Format: cell-based. The settings on record: 48 hours; for Relative gene expression level (with non treat as 1.0): CES1 mRNA, mean value ± SD, n = 3. As for the experimental part: Normal human epidermal keratinocytes (Life Technologies Japan Ltd.) were seeded into a 6-well plate so that the number of cells in each well was […], and cultured in HuMedia-KG2 (KURABO INDUSTRIES LTD.) overnight. Then, an extract of broccoli sprouts (Broccoli Sprout Extract, Oryza Oil (. Fat Chemical Co., Ltd., for cosmetics) was added to the culture medium at a solid concentration of 0.0001 w/v % or 0.001 w/v %, and the cells were cultured for 48 hours. The ceils after culture was washed with D-PB3 (−) and RNA was extracted using RNeasy Mini Kits (QIAGEN) according to the manual attached. The RNA concentration was calculated by using NanoDrop 1000 (Thermo Fisher Scientific). Total RNA extracted was reverse-transcribed using High-Capacity RNA-to-cDNA Kit (Life Technologies Japan Ltd.), and then real-time PCR was performed using 7500 Fast Real-Time PCR System (Life Technologies Japan Ltd.). In the real-time PCR, the expression levels of CES1 mRNA were compared by the ΔΔ CT method using the above reverse transcribed cDNA and CES1, or, as an endogenous control, Tsqman primer for RPLP0 (Life Technologies Japan Ltd., CES1:Hs00275627-m1, RPLP0:HS00420695_gH), Taqma.n Gene Expression Master Mix (Life Technologies Japan Ltd.).
Normal human epidermal keratinocytes (Life Technologies Japan Ltd.) were seeded into a 6-well plate so that the number of cells in each well was […] and cultured in HuMedia-KG2 (KURABO INDUSTRIES LTD.) overnight. Then, suiforaphane (Sigma-Aldrich) was exposed to the cells so that the final concentration was 0.1, 1, and 10 μM, and the cells were cultured for 48 hours. The cells after culture was washed with a phosphate buffer (D-PBS (−)) and RNA was extracted using RNeasy Mini Kits (QIAGEN) according to the manual attached. The RNA concentration was calculated by using NanoDrop 1000 (Thermo Fisher Scientific). Total RNA extracted was reverse-transcribed using High-Capacity RNA-to-cDNA Kit (Life Technologies Japan Ltd.), and then real-time PCR was performed using 7500 Fast Real-Time PCR System (Life Technologies Japan Ltd.). In the real-time PCR, the expression levels of the gene were compared by the ΔΔ CT method using the above reverse transcribed cDNA and carboxylesterase 1, or, as an endogenous control, Taqman primer for RPLP0 (Life Technologies Japan Ltd., CES1:Hs00275627-m1, RPLP0:HS00420895_gH), Taqman Gene Expression Master Mix (Life Technologies Japan Ltd.).

Regarding `O=C(O)c1ccc(O)cc1` [PHBA, p-hydroxybenzoic acid], the sensory irritation score result in series [1] is “very mild”. In series [2], the “amount of IL-1α in the medium” value was “much smaller than that when MP was used”.

On to `COC(=O)c1ccc(O)cc1` [MP, methyl p-hydroxybenzoate], for which the sensory irritation score result in series [1] is on record as “felt some irritation”.

Take `C[S+]([O-])CCCCN=C=S` (stereo not shown) [Sulforaphane, 4-(methylsulfinyl)butyl isothiocyanate]: the “Relative gene expression level (with non treat as 1.0)” value in series [3] (sulforaphane 0.1 μM) is on record as 1.5 ± 0.33; in series [3] (sulforaphane 1 μM), 3.6 ± 0.90; in series [3] (sulforaphane 10 μM), 35 ± 8.4. Moreover, in series [3] (sulforaphane 0.1, 1 and 10 μM, summary of Table 1), the “expression level of CES1 mRNA” value was “increased the expression level of CES1 mRNA”.
